Results from PMC6078311, “Localization and functional characterization of the pathogenesis-related proteins Rbe1p and Rbt4p in Candida albicans” (PLoS ONE, 2018).

Assays:
Rbt4p = target: T1, Rbt4p (Candida albicans, UniProt Q5AB48); test: in vitro [3H]-cholesterol radioligand saturation binding with purified protein; competition with unlabeled cholesterol
T1 construct: gene RBT4; codon-optimized His-tagged Rbt4p expressed in Escherichia coli

Rbe1p = target: T2, Rbe1p (Candida albicans, UniProt Q59ZX3); test: as above
T2 construct: gene RBE1; codon-optimized His-tagged Rbe1p expressed in Escherichia coli
T2 sequence (Q59ZX3 20-271): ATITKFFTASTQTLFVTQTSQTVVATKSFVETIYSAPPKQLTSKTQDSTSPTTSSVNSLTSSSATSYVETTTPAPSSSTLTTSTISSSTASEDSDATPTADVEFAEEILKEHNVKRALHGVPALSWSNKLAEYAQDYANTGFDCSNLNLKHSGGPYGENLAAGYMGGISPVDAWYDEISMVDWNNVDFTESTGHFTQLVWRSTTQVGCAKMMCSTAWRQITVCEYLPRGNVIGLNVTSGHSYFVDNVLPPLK

T1 sequence (Q5AB48 20-358): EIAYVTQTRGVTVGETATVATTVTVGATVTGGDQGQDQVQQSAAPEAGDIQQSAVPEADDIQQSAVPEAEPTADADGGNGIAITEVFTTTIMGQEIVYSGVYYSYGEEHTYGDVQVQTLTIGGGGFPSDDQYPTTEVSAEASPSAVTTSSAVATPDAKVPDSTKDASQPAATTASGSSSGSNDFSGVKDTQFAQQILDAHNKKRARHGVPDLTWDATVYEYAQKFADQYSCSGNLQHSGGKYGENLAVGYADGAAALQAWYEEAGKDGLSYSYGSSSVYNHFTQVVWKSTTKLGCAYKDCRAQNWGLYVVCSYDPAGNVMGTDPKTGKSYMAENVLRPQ

SMILES: CC(C)CCC[C@@H](C)[C@H]1CC[C@H]2[C@@H]3CC=C4C[C@@H](O)CC[C@]4(C)[C@H]3CC[C@]12C [cholesterol]
- Kd (Rbt4p): ~3.3 µM
- Kd (Rbe1p): ~5.78 µM
